In patent US8822517B2, “Arylosulfonamides for the treatment of CNS diseases” (Adamed SP. Z O.O., priority 2010, dated 2014):
Where two headings read alike, the source gives them in different places.

What was measured:
[1] = molecular target: T1, serotoninergic 5-HT7 receptor (Homo sapiens, UniProt P34969); test: Cellular functional assay, serotoninergic 5-HT7 receptor (agonism/antagonism); assay type: cell-based; conditions: for activation at 1 µM: read-out: 5-HT7-ag [%]; for inhibition at 1 µM: read-out: 5-HT7-antag. [%]
T1 sequence (P34969 whole entry): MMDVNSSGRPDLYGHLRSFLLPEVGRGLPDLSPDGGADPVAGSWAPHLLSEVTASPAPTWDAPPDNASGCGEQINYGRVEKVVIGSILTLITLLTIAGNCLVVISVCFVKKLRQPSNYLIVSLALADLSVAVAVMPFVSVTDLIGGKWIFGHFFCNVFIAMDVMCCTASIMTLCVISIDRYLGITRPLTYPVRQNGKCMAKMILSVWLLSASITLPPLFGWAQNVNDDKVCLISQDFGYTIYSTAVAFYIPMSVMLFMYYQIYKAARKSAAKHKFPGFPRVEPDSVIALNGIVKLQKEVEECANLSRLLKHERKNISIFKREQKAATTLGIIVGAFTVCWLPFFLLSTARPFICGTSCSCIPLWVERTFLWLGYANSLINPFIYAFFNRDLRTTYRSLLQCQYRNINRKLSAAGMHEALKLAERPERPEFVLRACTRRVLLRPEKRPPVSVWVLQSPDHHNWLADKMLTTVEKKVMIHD
Description: (§1) The compounds were tested at the concentration of 1×10^−6M.
(§2) In the Tables ag refers to agonism, and antag to antagonism).

[2] = molecular target: T1, serotoninergic 5-HT7 receptor; test: Binding assay 5-HT7 (h), [3H]LSD, CHO cells; parameters: expressed in transfected cells; host or cells: CHO cells; conditions: read-out: 5-HT7
Method in brief: (§3)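 Compounds were screened at 1×10^−6 M, and bound radioactivity was measured by scintillation counting. Specific binding equals total binding minus nonspecific binding obtained with an excess of unlabelled ligand.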

adrenergic α1A receptor = molecular target: T2, adrenergic α1A receptor (Homo sapiens, UniProt P35348); test: Cellular functional assay, adrenergic α1A receptor (agonism/antagonism); assay type: cell-based; conditions: for activation at 1 µM: agonist effect, percent of control specific agonist response, compounds tested at 1×10^−6M, read-out: α1A -ag [%]; for inhibition at 1 µM: read-out: α1A -antag. [%]
T2 sequence (P35348 1-466): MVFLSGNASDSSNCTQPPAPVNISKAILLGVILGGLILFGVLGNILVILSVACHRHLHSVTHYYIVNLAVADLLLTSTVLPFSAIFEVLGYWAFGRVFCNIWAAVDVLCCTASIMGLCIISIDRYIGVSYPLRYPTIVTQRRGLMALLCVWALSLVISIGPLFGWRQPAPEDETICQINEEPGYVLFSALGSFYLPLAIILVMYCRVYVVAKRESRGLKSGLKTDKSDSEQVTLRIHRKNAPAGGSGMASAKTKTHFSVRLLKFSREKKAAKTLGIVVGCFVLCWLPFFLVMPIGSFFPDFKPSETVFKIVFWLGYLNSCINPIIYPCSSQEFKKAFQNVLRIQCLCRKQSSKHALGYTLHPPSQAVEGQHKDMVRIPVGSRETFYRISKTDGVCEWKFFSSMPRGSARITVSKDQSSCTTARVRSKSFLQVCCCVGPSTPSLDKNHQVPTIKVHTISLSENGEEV
Description: (§4) […]. The compounds were tested at the concentration of 1×10^−6M.
(§5) Conditions and methodology (by reference to the literature) of cellular functional assays are given in Table 13 and the tests results for representative compounds are given in Table 14 (dopaminergic receptor D2), in Table 15 (dopaminergic receptor D3), in Table 16 (serotoninergic receptor 5-HT1A), in Table 17 (serotoninergic receptor 5-HT2A), in Table 18 (serotoninergic receptor 5-HT6), in Table 19 (serotoninergic receptor 5-HT7), in Table 20 (adrenergic α1 receptor), in Table 21 (adrenergic α2C receptor), in Table 22 (histaminergic H1 receptor) and in Table 23 (serotoninergic 5-HT2C receptor). In the Tables ag refers to agonism, and antag to antagonism).

[3] = molecular target: T3, serotoninergic receptor 5-HT2C (Homo sapiens, UniProt P28335); test: Binding assay 5-HT2C (h), [3H]mesulergine, HEK-293 cells; conditions: read-out: 5-HT2C [%]
T3 construct: expressed in transfected cells; host or cells: HEK-293 cells
T3 sequence (P28335 33-458): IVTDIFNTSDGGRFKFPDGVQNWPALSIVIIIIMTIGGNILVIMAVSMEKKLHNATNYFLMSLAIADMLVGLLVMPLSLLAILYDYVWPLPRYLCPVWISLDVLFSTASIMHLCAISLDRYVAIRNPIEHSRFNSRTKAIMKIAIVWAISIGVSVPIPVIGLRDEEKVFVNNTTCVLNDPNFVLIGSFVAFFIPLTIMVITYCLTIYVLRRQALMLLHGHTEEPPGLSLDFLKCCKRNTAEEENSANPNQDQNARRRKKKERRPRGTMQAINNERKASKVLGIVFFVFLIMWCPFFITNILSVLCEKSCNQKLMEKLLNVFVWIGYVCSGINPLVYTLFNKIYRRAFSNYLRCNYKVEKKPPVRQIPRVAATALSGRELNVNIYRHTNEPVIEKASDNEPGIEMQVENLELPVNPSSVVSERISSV
Method in brief: as §3

[4] = molecular target: serotoninergic 5-HT6 receptor (Homo sapiens, UniProt P50406); test: Cellular functional assay, serotoninergic 5-HT6 receptor (agonism/antagonism); assay type: cell-based; conditions: for activation at 1 µM: agonist effect, percent of control specific agonist response, compounds tested at 1×10^−6M, read-out: 5-HT6-ag [%]; for inhibition at 1 µM: read-out: 5-HT6-antag. [%]
Sequence of serotoninergic 5-HT6 receptor (P50406 whole entry): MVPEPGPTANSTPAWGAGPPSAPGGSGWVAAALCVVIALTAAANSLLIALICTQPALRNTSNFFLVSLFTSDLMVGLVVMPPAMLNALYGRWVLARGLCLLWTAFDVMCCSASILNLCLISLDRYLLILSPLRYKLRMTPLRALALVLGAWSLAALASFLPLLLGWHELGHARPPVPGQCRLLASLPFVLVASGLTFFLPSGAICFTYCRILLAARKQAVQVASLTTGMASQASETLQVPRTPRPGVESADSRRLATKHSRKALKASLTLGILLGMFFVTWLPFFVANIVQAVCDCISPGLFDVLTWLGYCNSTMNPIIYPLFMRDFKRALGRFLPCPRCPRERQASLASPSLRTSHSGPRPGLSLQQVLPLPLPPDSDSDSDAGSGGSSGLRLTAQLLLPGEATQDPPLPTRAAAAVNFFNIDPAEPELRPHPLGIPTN
Description: as §1, §2

dopaminergic D2 receptor = dopaminergic D2 receptor (Homo sapiens, UniProt P14416); test: Cellular functional assay, dopaminergic D2 receptor (agonism/antagonism); assay type: cell-based; conditions: HEK293; for activation at 1 µM: agonist effect, percent of control specific agonist response (3 μM dopamine for control), 1×10^−6 M, D2S (h), HEK-293 cells, read-out: D2-ag [%]; for inhibition at 1 µM: read-out: D2-antag. [%]
Sequence of dopaminergic D2 receptor (P14416 whole entry): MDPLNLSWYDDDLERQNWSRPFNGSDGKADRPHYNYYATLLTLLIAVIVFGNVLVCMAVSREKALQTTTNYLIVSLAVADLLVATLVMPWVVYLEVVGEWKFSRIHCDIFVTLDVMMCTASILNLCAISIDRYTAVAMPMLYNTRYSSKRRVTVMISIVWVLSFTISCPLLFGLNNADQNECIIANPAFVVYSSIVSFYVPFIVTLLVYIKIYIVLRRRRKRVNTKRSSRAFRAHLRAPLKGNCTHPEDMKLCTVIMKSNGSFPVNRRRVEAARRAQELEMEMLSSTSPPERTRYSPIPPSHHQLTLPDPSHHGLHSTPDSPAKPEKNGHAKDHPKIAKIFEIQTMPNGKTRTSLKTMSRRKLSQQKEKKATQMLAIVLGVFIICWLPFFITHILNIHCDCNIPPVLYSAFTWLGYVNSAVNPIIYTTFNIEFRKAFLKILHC
Description: as §1, §2

[5] = molecular target: T4, serotonine transporter (SERT) receptor (Homo sapiens, UniProt P31645); test: Binding assay SERT (h), [3H]imipramine, CHO cells; conditions: read-out: SERT [%]
T4 construct: expressed in transfected cells; host or cells: CHO cells
T4 sequence (P31645 whole entry): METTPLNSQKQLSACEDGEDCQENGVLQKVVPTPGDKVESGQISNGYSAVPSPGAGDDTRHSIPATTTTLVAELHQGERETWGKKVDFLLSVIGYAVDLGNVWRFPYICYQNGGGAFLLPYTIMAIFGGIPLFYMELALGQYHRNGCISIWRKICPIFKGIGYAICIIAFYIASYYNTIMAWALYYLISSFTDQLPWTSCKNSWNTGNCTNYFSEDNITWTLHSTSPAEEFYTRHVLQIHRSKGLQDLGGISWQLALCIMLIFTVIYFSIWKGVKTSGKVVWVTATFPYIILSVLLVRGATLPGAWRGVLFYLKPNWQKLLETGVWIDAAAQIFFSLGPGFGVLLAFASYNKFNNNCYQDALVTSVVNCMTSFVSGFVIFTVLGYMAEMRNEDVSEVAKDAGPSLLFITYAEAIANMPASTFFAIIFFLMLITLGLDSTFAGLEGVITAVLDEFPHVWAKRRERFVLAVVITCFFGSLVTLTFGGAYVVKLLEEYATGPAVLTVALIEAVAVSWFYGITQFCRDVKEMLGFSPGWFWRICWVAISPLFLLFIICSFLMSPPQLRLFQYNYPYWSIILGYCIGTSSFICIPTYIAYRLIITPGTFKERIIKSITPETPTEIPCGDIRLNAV
Method in brief: as §3

[6] = molecular target: serotoninergic 5-HT2A receptor (Homo sapiens, UniProt P28223); test: Cellular functional assay, serotoninergic 5-HT2A receptor (agonism/antagonism); assay type: cell-based; conditions: for activation at 1 µM: read-out: 5-HT2A -ag [%]; for inhibition at 1 µM: read-out: 5-HT2A -antag [%]
Sequence of serotoninergic 5-HT2A receptor (P28223 whole entry): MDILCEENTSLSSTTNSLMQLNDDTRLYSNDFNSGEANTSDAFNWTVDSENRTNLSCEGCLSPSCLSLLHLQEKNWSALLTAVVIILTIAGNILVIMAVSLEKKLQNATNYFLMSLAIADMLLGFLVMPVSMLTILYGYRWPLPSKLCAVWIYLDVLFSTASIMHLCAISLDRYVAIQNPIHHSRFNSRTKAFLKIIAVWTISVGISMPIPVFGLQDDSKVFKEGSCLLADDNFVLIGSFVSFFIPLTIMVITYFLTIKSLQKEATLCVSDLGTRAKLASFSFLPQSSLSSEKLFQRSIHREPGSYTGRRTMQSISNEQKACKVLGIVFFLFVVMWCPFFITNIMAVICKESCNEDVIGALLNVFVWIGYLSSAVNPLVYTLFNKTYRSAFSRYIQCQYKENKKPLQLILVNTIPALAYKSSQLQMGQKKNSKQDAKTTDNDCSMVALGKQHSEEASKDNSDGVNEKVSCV
Description: as §4, §5

dopaminergic D3 receptor = dopaminergic D3 receptor (Homo sapiens, UniProt P35462); test: Cellular functional assay, dopaminergic D3 receptor (agonism/antagonism); assay type: cell-based; conditions: for inhibition at 1 µM: CHO, read-out: D3-antag. [%]; for activation at 1 µM: agonist effect, percent of control specific agonist response (300 nM dopamine for control), 1×10^−6 M, D3 (h), CHO cells, read-out: D3-ag [%]
Sequence of dopaminergic D3 receptor (P35462 whole entry): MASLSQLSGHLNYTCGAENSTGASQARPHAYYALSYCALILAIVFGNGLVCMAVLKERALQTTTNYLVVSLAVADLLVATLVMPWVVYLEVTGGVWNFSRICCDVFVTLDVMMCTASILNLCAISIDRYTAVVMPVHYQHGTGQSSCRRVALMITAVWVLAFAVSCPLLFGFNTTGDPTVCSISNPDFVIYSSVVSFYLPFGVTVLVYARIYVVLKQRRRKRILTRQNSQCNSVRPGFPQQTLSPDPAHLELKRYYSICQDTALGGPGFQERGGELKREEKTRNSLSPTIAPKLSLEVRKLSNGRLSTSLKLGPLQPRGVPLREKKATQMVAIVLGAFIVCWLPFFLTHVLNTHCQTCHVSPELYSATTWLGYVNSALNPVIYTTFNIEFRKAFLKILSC
Description: as §1, §2

[7] = agonist effect, percent of control specific agonist response, compounds tested at 1×10^−6M

Compound | activation at 1 µM [1, 7] [%] | inhibition at 1 µM [1] [%] | inhibition at 1 µM [2] [%] | activation at 1 µM (adrenergic α1A receptor) [%] | inhibition at 1 µM (adrenergic α1A receptor) [%] | inhibition at 1 µM [3] [%] | activation at 1 µM [4] [%] | inhibition at 1 µM [4] [%] | activation at 1 µM (dopaminergic D2 receptor) [%] | inhibition at 1 µM (dopaminergic D2 receptor) [%] | inhibition at 1 µM [5] [%] | activation at 1 µM [6] [%] | inhibition at 1 µM [6] [%] | inhibition at 1 µM (dopaminergic D3 receptor) [%] | activation at 1 µM (dopaminergic D3 receptor) [%] | activation at 1 µM [1] [%]
O=S(=O)(NCCCCN1CCN(c2noc3ccccc23)CC1)c1cc2ccc(Cl)cc2s1 [Compound 288, N-[4-[4-(1,2-Benzoxazol-3-yl)piperazin-1-yl]butyl]-6-chlorobenzothiophene-2-sulphonamide] | -2 | 92 | 100 | 0 | 97 | 32 | 0 | 74 | 5 | 79 | -14 | -2 | 97 | 72 | 0 | 
O=S(=O)(NCCCCN1CCC(c2noc3cc(F)ccc23)CC1)c1ccc(Br)cc1 [Compound 298, 4-Bromo-N-[4-[4-(6-fluoro-1,2-benzoxazol-3-yl)piperidin-1-yl]butyl]benzenesulphonamide] | -3 | 98 | 100 | 1 | 100 | 52 | 0 | 89 | 12 | 84 | 35 | -1 | 99 | 99 | -8 | 
O=S(=O)(NCCCN1CCC(c2noc3cc(F)ccc23)CC1)c1ccc(F)c(Cl)c1 [Compound 331, 3-Chloro-4-fluoro-N-[3-[4-(6-fluoro-1,2-benzoxazol-3-yl)piperidin-1-yl]propyl]benzenesulphonamide] | -2 | 102 | 99 | 1 | 100 | 82 | -1 | 98 | 4 | 87 | 31 | -1 | 98 | 114 | -15 | 
O=S(=O)(NCCCCN1CCN(c2noc3ccccc23)CC1)c1c[nH]c2ncccc12 [Compound 89, N-[4-[4-(1,2-Benzoxazol-3-yl)piperazin-1-yl]butyl]-1H-pyrrolo[2,3-b]pyridine-3-sulphonamide] | -2 | 91 | 98 | -1 | 100 | 34 | 0 | 83 |  |  | 2 | -2 | 94 | 69 | -18 | 
Cc1cccc(S(=O)(=O)NCCCCN2CCN(c3nsc4ccccc34)CC2)c1 [Compound 3, N-(4-(4-(1,2-Benzothiazol-3-yl)piperazin-1-yl)butyl)-3-methylbenzenesulphonamide] |  | 93 | 97 |  |  | 77 |  | 22 |  |  | 57 |  |  |  |  | -2
O=S(=O)(NCCCCN1CCC(c2noc3cc(F)ccc23)CC1)c1csc2ccccc12 [Compound 313, N-[4-[4-(6-Fluoro-1,2-benzoxazol-3-yl)piperidin-1-yl]butyl]benzothiophene-3-sulphonamide] | -2 | 100 | 100 | 0 | 100 | 59 | -3 | 91 | -5 | 85 | 23 | -3 | 98 | 81 | 8 | 
O=S(=O)(NCCCCN1CCN(c2nsc3ccccc23)CC1)c1cccc2ccccc12 [Compound 1, N-(4-(4-(1,2-Benzothiazol-3-yl)piperazin-1-yl)butyl)naphthalene-1-sulphonamide] | -1 | 97 | 96 | 0 | 100 | 80 | 1 | 39 | -1 | 95 | 49 | 0 | 99 | 49 | -17 | 
O=S(=O)(NCCCCN1CCN(c2noc3ccccc23)CC1)c1cccc2ccccc12 [Compound 13, N-(4-(4-(1,2-Benzoxazol-3-yl)piperazin-1-yl)butyl)naphthalene-1-sulphonamide] | 1 | 95 | 100 | 0 | 100 | 34 | 1 | 56 | 2 | 95 | 7 | 2 | 100 |  |  | 
O=S(=O)(NCCCCN1CCN(c2noc3ccccc23)CC1)c1ccc2cc(Cl)ccc2c1 [Compound 79, N-[4-[4-(1,2-Benzoxazol-3-yl)piperazin-1-yl]butyl]-6-chloro-naphthalene-2-sulphonamide] | -2 | 97 | 97 |  |  | 72 | 1 | 76 | 3 | 77 | 3 | -2 | 97 | 77 | -9 | 
O=S(=O)(NCCCCN1CCN(c2noc3ccccc23)CC1)c1ccc(-c2ccccc2)cc1 [Compound 283, N-[4-[4-(1,2-Benzoxazol-3-yl)piperazin-1-yl]butyl]-4-phenylbenzenesulphonamide] | -2 | 93 | 99 | 0 | 100 | 80 | 0 | 64 |  |  | 24 | 0 | 99 | 58 | -10 | 
